The text below walks through data of patent US20220315621A1, “COMPOSITIONS AND METHODS FOR TREATING CNS DISORDERS” (priority 2017, published 2022).

One assay concerns the target TBPS binding. Put plainly: Steroid inhibition of TBPS binding. The note with it: Table II-2; read-out: TBPS IC50 (μm).
For orientation: IC50 means the concentration that inhibits the measured activity by half. For `CC(=O)[C@H]1CC[C@H]2[C@@H]3CC[C@@H]4C[C@](C)(O)C[C@@H]4[C@H]3CC[C@]12C` [II-G8, 1-((1S,3aS,3bR,5aR,7S,8aS,8bR,10aS)-7-hydroxy-7,10a-dimethylhexadecahydrodicyclopenta[a,f]naphthalen-1-yl)ethan-1-one], the concentration for half-maximal inhibition (IC50) was in the range of 100 to 1000 nM.
Same read-out and setting: to `COC[C@]1(O)C[C@H]2CC[C@@H]3[C@H](CC[C@]4(C)[C@@H](C(C)=O)CC[C@@H]34)[C@H]2C1` [II-J9, 1-((1S,3aS,3bR,5aR,7S,8aS,8bR,10aS)-7-hydroxy-7-(methoxymethyl)-10a-methylhexadecahydrodicyclopenta[a,f]naphthalen-l-yl)ethan-1-one] belongs 100 to 1000 nM; to `C[C@@]1(O)CCC[C@@]2(C)[C@@H](CC[C@@H]3[C@@H]2CC[C@]2(C)[C@@H](C(=O)Cn4cc(C#N)cn4)CC[C@@H]32)C1` [II-D5a, 1-(2-((1S,3aS,3bR,5aS,7R,10aS,10bS,12aS)-7-hydroxy-7,10a,12a-trimethyloctadecahydrocyclohepta[a]cyclopenta[f]naphthalen-1-yl)-2-oxoethyl)-1H-pyrazole-4-carbonitrile], 10 to 100 nM.
Still for that read-out and setting: to `CC(=O)[C@H]1CC[C@H]2[C@@H]3CC=C4CC[C@@](C)(O)CC[C@]4(C)[C@H]3CC[C@]12C` [II-C2b, 1-((1S,3aS,3bS,8R,10aR,10bS,12aS)-8-hydroxy-8,10a,12a-trimethyl-1,2,3,3a,3b,4,6,7,8,9,10,10a,10b,11,12,12a-hexadecahydrocyclohepta[a]cyclopenta[f]naphthalen-1-yl)ethan-1-one] belongs 1000 to 10000 nM; to `C[C@@]1(O)CCC[C@H]2[C@H](CC[C@@H]3[C@@H]2CC[C@]2(C)[C@@H](C(=O)Cn4cc(C#N)cn4)CC[C@@H]32)C1` [II-E10a, 1-(2-((1S,3aS,3bR,5aR,7R,10aS,10bR,12aS)-7-hydroxy-7,12a-dimethyloctadecahydrocyclohepta[a]cyclopenta[f]naphthalen-1-yl)-2-oxoethyl)-1H-pyrazole-4-carbonitrile], 10 to 100 nM; to `CC(=O)[C@H]1CC[C@H]2[C@@H]3CC=C4C[C@](C)(O)CCC[C@]4(C)[C@H]3CC[C@]12C` [II-D2a, 1-((1S,3aS,3bS,7R,10aR,10bS,12aS)-7-hydroxy-7,10a,12a-trimethyl-1,2,3,3a,3b,4,6,7,8,9,10,10a,10b,11,12,12a-hexadecahydrocyclohepta[a]cyclopenta[f]naphthalen-1-yl)ethan-1-one], 1000 to 10000 nM.
For `C[C@]1(O)C[C@H]2CC[C@@H]3[C@H](CC[C@]4(C)[C@@H](C(=O)Cn5ccnn5)CC[C@@H]34)[C@H]2C1` [II-G12, 1-((1S,3aS,3bR,5aR,7S,8aS,8bR,10aS)-7-hydroxy-7,10a-dimethylhexadecahydrodicyclopenta[a,f]naphthalen-1-yl)-2-(1H-1,2,3-triazol-1-yl)ethan-1-one], the IC50 was in the range of 100 to 1000 nM.
On to `CC(=O)[C@H]1CC[C@H]2[C@@H]3CC[C@H]4C[C@](C)(O)CCC[C@]4(C)[C@H]3CC[C@]12C` [II-D3a, 1-((1S,3aS,3bR,5aS,7R,10aS,10bS,12aS)-7-hydroxy-7,10a,12a-trimethyloctadecahydrocyclohepta[a]cyclopenta[f]naphthalen-1-yl)ethan-1-one], for which the IC50 is 1000 to 10000 nM.
On to `C[C@]1(O)CCC[C@@]2(C)[C@@H](CC[C@@H]3[C@@H]2CC[C@]2(C)[C@@H](C(=O)Cn4cc(C#N)cn4)CC[C@@H]32)C1` [II-D5b, 1-(2-((1S,3aS,3bR,5aS,7S,10aS,10bS,12aS)-7-hydroxy-7,10a,12a-trimethyloctadecahydrocyclohepta[a]cyclopenta[f]naphthalen-1-yl)-2-oxoethyl)-1H-pyrazole-4-carbonitrile], for which the IC50 lay in the range of 100 to 1000 nM.
In the case of `CC(=O)[C@H]1CC[C@H]2[C@@H]3CC[C@@H]4C[C@](C)(O)CCC[C@@H]4[C@H]3CC[C@]12C` [II-E8a, 1-((1S,3aS,3bR,5aR,7R,10aS,10bR,12aS)-7-hydroxy-7,12a-dimethyloctadecahydrocyclohepta[a]cyclopenta[f]naphthalen-1-yl)ethan-1-one], the half-maximal inhibitory concentration (IC50) lay in the range of 10 to 100 nM.
`CC(=O)[C@H]1CC[C@H]2[C@@H]3CC[C@@H]4[C@H](CC[C@@]4(C)O)[C@H]3CC[C@]12C` [II-H11, 1-((1S,3aS,3bR,5aR,6R,8aR,8bS,10aS)-6-hydroxy-6,10a-dimethylhexadecahydrodicyclopenta[a,f]naphthalen-1-yl)ethan-1-one]: the IC50 was 1000 to 10000 nM.
Regarding `C[C@]1(O)C[C@H]2CC[C@@H]3[C@H](CC[C@]4(C)[C@@H](C(=O)Cn5nccn5)CC[C@@H]34)[C@H]2C1` [II-G11, 1-((1S,3aS,3bR,5aR,7S,8aS,8bR,10aS)-7-hydroxy-7,10a-dimethylhexadecahydrodicyclopenta[a,f]naphthalen-1-yl)-2-(2H-1,2,3-triazol-2-yl)ethan-1-one], the half-maximal inhibitory concentration (IC50) lay in the range of 100 to 1000 nM.
Consider `CC(=O)[C@H]1CC[C@H]2[C@@H]3CC[C@@H]4CC(=O)CCC[C@@H]4[C@H]3CC[C@]12C` [II-E7b, (1 S,3aS,3bR,5aR,10aS,10bR,12aS)-1-acetyl-12a-methylhexadecahydrocyclohepta[a]cyclopenta[f]naphthalen-7(1H)-one], for which the IC50 was 1000 to 10000 nM.
On the same count and under the same terms, to `Cc1nnnn1CC(=O)[C@H]1CC[C@H]2[C@@H]3CC=C4CC[C@](C)(O)CC[C@]4(C)[C@H]3CC[C@]12C` [II-F7, 1-((1S,3aS,3bS,8S,10aR,10bS,12aS)-8-hydroxy-8,10a,12a-trimethyl-1,2,3,3a,3b,4,6,7,8,9,10,10a,10b,11,12,12a-hexadecahydrocyclohepta[a]cyclopenta[f]naphthalen-1-yl)-2-(5-methyl-1H-tetrazol-1-yl)ethan-1-one] belongs 10 to 100 nM; to `C[C@]12CC[C@@H]3[C@H]4CC[C@@](C)(O)[C@@H]4CC[C@H]3[C@@H]1CC[C@@H]2C(=O)Cn1cc(C#N)cn1` [II-H13, 1-(2-((1S,3aS,3bR,5aR,6R,8aR,8bS,10aS)-6-hydroxy-6,10a-dimethylhexadecahydrodicyclopenta[a,f]naphthalen-1-yl)-2-oxoethyl)-1H-pyrazole-4-carbonitrile], 1000 to 10000 nM.
Same read-out and setting: to `Cc1nnn(CC(=O)[C@H]2CC[C@H]3[C@@H]4CC[C@H]5CC[C@](C)(O)CC[C@]5(C)[C@H]4CC[C@]23C)n1` [II-C11, 1-((1S,3aS,3bR,5aS,8S,10aS,10bS,12aS)-8-hydroxy-8,10a,12a-trimethyloctadecahydrocyclohepta[a]cyclopenta[f]naphthalen-1-yl)-2-(5-methyl-2H-tetrazol-2-yl)ethan-1-one] belongs 10 to 100 nM; to `Cc1nnnn1CC(=O)[C@H]1CC[C@H]2[C@@H]3CC[C@H]4CC[C@](C)(O)CC[C@]4(C)[C@H]3CC[C@]12C` [II-C10, 1-((1S,3aS,3bR,5aS,8S,10aS,10bS,12aS)-8-hydroxy-8,10a,12a-trimethyloctadecahydrocyclohepta[a]cyclopenta[f]naphthalen-1-yl)-2-(5-methyl-1H-tetrazol-1-yl)ethan-1-one], 100 to 1000 nM; to `COC[C@]1(O)C[C@H]2CC[C@@H]3[C@H](CC[C@]4(C)[C@@H](C(=O)Cn5cc(C#N)cn5)CC[C@@H]34)[C@H]2C1` [II-J11, 1-(2-((1S,3aS,3bR,5aR,7S,8aS,8bR,10aS)-7-hydroxy-7-(methoxymethyl)-10a-methylhexadecahydrodicyclopenta[a,f]naphthalen-1-yl)-2-oxoethyl)-1H-pyrazole-4-carbonitrile], 100 to 1000 nM.
Same read-out and setting: to `Cc1nnnn1CC(=O)[C@H]1CC[C@H]2[C@@H]3CC[C@@H]4CC[C@](C)(O)CC[C@@H]4[C@H]3CC[C@]12C` [II-F13, 1-((1S,3aS,3bR,5aR,8S,10aS,10bR,12aS)-8-hydroxy-8,12a-dimethyloctadecahydrocyclohepta[a]cyclopenta[f]naphthalen-1-yl)-2-(5-methyl-1H-tetrazol-1-yl)ethan-1-one] belongs 1000 to 10000 nM.

Still in this assay, the particulars now being: Table III-1; read-out: TBPS IC50.
Take `CC(=O)[C@H]1CC[C@H]2[C@@H]3CCC[C@H]4C[C@](C)(O)CC[C@@H]4[C@H]3CC[C@]12C` [III-A13, 1-((1S,3aS,3bR,6aS,8R,10aS,10bR,12aS)-8-hydroxy-8,12a-dimethyloctadecahydrobenzo[3,4]cyclohepta[1,2-e]inden-1-yl)ethan-1-one]: the half-maximal inhibitory concentration (IC50) fell in the range of 1000 to 10000 nM.

Staying with this assay, now noted: Table IV-2; read-out: TBPS IC50.
Consider `C[C@@]1(O)CC[C@H]2[C@@H](C[C@@H]3[C@@H]2CC[C@]2(C)[C@@H](C(=O)Cn4cc(C#N)cn4)CC[C@@H]32)C1` [IV-B9, 1-(2-((3S,3aS,5aR,5bS,8R,9aS,10aR,10bS)-8-hydroxy-3a,8-dimethylhexadecahydrocyclopenta[a]fluoren-3-yl)-2-oxoethyl)-1H-pyrazole-4-carbonitrile], for which the IC50 lay within 10 to 100 nM.
For `CC(=O)[C@H]1CC[C@H]2[C@@H]3C[C@H]4C[C@](C)(O)CC[C@@H]4[C@H]3CC[C@]12C` [IV-B7, 1-((3S,3aS,5aR,5bS,8R,9aS,10aR,10bS)-8-hydroxy-3a,8-dimethylhexadecahydrocyclopenta[a]fluoren-3-yl)ethan-1-one], the IC50 is 10 to 100 nM.

The assay is the same for the next values; noted with them: Table V-2; read-out: TBPS IC50.
Take `CC(=O)[C@H]1CC[C@H]2[C@@H]3CC[C@H]4C[C@](C)(O)CC[C@]4(C)[C@H]3CCC[C@]12C` [V-A8, 1-((3aS,4S,6aS,6bR,8aS,10R,12aS,12bS)-10-hydroxy-3a,10,12a-trimethyloctadecahydronaphtho[2,1-e]azulen-4-yl)ethan-1-one]: the IC50 was 100 to 1000 nM.
On the same count and under the same terms, next, `C[C@@]1(O)CC[C@@]2(C)[C@@H](CC[C@@H]3[C@@H]2CCC[C@]2(C)[C@@H](C(=O)Cn4cc(C#N)cn4)CC[C@@H]32)C1` [V-A10, 1-(2-((3aS,4S,6aS,6bR,8aS,10R,12aS,12bS)-10-hydroxy-3a,10,12a-trimethyloctadecahydronaphtho[2,1-e]azulen-4-yl)-2-oxoethyl)-1H-pyrazole-4-carbonitrile]: 100 to 1000 nM.
